Assays:
[1] = system: human acute T lymphoblastic leukemia CCRF-CEM cell lines; test: Cell growth inhibition 1 (CellTiter-Glo), CCRF-CEM; format: cell-based; settings: 72 hours culture with compound
[2] = system: human diffuse large B-cell lymphoma DB cell line; test: Cell growth inhibition 2 (CellTiter-Glo), DB; format: cell-based; settings: 384-well plate
[3] = system: human multiple myeloma U266B1 cell line; test: Cell growth inhibition 2 (CellTiter-Glo), U266B1; format: cell-based; settings: 384-well plate
carbonic anhydrase II = carbonic anhydrase II (Homo sapiens (Human), UniProt P00918); test: Carbonic anhydrase II enzyme activity inhibition (4-NPA esterase activity); format: biochemical
[4] = system: Human colon cancer HCT-116 cell lines; test: Antitumor effect on tumor cells transplanted into mice 1 (HCT-116, tumor volume); format: in vivo, BALB/cAJcl-nu/nu mice; settings: HCT-116 in nude mice; for RTV15 comparison with control: Dunnett's test
Procedure: (§1) Human colon cancer HCT-116 cell lines were washed in PBS and suspended at a concentration of 4×10^7 cells/mL. 0.1 mL of this cell suspension was subcutaneously implanted in the right chest of 6-week-old BALB/cAJcl-nu/nu mice (produced by CLEA Japan, Inc.).
(§2) The length and the width of the implanted tumor and the body weight were measured. The tumor volume (TV) was calculated using the following equation (equation D). TV (mm3)=(length×width^2)/2, wherein the unit of length and width is mm (equation D).
(§3) When the TV reached 100 to 300 mm3, the animals were assigned to each group in accordance with a stratified randomization procedure. The day was considered day 1, the TV on the day was considered TV1, and the body weight on the day was considered BW1.
(§4) A required amount of the test compound was weighed to prepare an administration solution.
(§5) Thereafter, the length and the width of the tumor and the body weight (BWn) on day n were measured over time in the same manner, and the TVn of each mouse was calculated. Further, the relative tumor volume (RTVn) was calculated based on the TVn of each mouse using the following equation (equation E); the treatment/control (T/C) value (%) was calculated based on the mean RTVn of each drug administration group using the following equation (equation F); and the weight change rate (BWCn) was calculated using the following equation (equation G). RTVn=TVn/TV1 (equation E) T/Cn(%)=(mean RTV of each drug administration group on the last day of the test)/(mean RTV of the control group on the last day of the test)×100 (equation F) BWCn (%)=(BWn−BW1)/BW1×100 (equation G) FIGS. 1 and 2, and Table 21 below show the results.

[5] = system: human acute leukemia MV-4-11 cell line; test: Cell growth inhibition 2 (CellTiter-Glo), MV-4-11; format: cell-based; settings: MV4-11, 384-well plate
[6] = Body weight change, antitumor test 1 (HCT-116 mice); format: in vivo, BALB/cAJcl-nu/nu mice
Procedure: as §1, §2, §3, §4
as §5, with “RTVn=TVn/TV1 (equation E) T/Cn(%)=(mean RTV of each drug administration group on the last day of the test)/(mean RTV of the control group on the last day of the test)×100 (equation F) BWCn (%)=(BWn−BW1)/BW1×100 (equation G) FIGS. 1 and 2, and Table 21 below show the results.” left out

[7] = system: human colon cancer HCT116 cell line; test: Cell growth inhibition 2 (CellTiter-Glo), HCT116; format: cell-based; settings: HCT-116, 384-well plate
[8] = Body weight change, antitumor test 2 (HCT-116 mice); format: in vivo, BALB/cAJcl-nu/nu mice; settings: HCT-116 xenograft in nude mice, 120 mg/kg/day, administration days 1, 4, 8, 11, day 15
[9] = system: human acute lymphoblastic leukemia (ALL) CCRF-CEM cell lines; test: Antitumor effect on tumor cells transplanted into mice 3 (CCRF-CEM, tumor volume); format: in vivo, BALB/cAJcl-nu/nu mice (nude mice); settings: Dunnett's test; CCRF-CEM in nude mice; compound hydrochlorides, intravenous
Procedure: as §2, §5
(§6) The tumor growth inhibitory effects on human tumors were evaluated as in Test Example 5, except that the compound hydrochloride obtained in Example 122, the compound hydrochloride (Example 64), and human acute lymphoblastic leukemia (ALL) CCRF-CEM cell lines were used, and the animals were assigned to each group in accordance with a stratified randomization procedure when the TV reached 140 to 380 mm3.
At this time, the cell lines were washed in PBS, and suspended in 50% PBS and 50% Matrigel basement membrane matrix (#356237; produced by BD Biosciences) at a concentration of 1×10^8 cells/mL. 0.1 mL of this cell suspension was subcutaneously implanted to the right chest of 6-week-old BALB/cAJcl-nu/nu mice (nude mice) (produced by CLEA Japan, Inc.). The compound hydrochloride (Example 122) was intravenously administered in an amount of 5 mL per 1 kg of body weight on days 1 and 8, and the compound hydrochloride (Example 133) was intravenously administered in an amount of 5 mL per 1 kg of body weight on days 1 and 8.

[10] = Body weight change, antitumor test 3 (CCRF-CEM mice); format: in vivo, BALB/cAJcl-nu/nu mice (nude mice); settings: for change of the body weight compared with the control: CCRF-CEM nude mice, Test Example 7
Procedure: as §2, §5, §6
At this time, the cell lines were washed in PBS, and suspended in 50% PBS and 50% Matrigel basement membrane matrix (#356237; produced by BD Biosciences) at a concentration of 1×10^8 cells/mL. 0.1 mL of this cell suspension was subcutaneously implanted to the right chest of 6-week-old BALB/cAJcl-nu/nu mice (nude mice) (produced by CLEA Japan, Inc.). […]

[11] = system: human skin cancer A-431 cell line; test: Cell growth inhibition 2 (CellTiter-Glo), A-431; format: cell-based; settings: 384-well plate
[12] = system: human prostate cancer LNCAP.FGC cell line; test: Cell growth inhibition 2 (CellTiter-Glo), LNCAP.FGC; format: cell-based; settings: 384-well plate
[13] = system: human lung cancer A-427 cell line; test: Cell growth inhibition 2 (CellTiter-Glo), A-427; format: cell-based; settings: 384-well plate
[14] = system: human breast cancer MDA-MB-453 cell line; test: Cell growth inhibition 2 (CellTiter-Glo), MDA-MB-453; format: cell-based; settings: 384-well plate
[15] = system: human pancreatic cancer Capan-1 cell line; test: Cell growth inhibition 2 (CellTiter-Glo), Capan-1; format: cell-based; settings: 384-well plate
[16] = system: Human colon cancer HCT-116 cell lines; test: Antitumor effect on tumor cells transplanted into mice 2 (HCT-116, tumor volume); format: in vivo, BALB/cAJcl-nu/nu mice; settings: Dunnett's test; HCT-116 in nude mice; hydrochloride compound of Example 55
[17] = system: human osteo- and soft tissue sarcoma SJCRH30 cell line; test: Cell growth inhibition 2 (CellTiter-Glo), SJCRH30; format: cell-based; settings: 384-well plate
[18] = target: NAE (heterodimer of APPBP1 and UBA3) (Homo sapiens (Human), UniProt Q8TBC4); test: Nedd8 conjugation inhibitory activity (AlphaScreen assay); format: biochemical; settings: purified NAE, GST-UBC12, Biotin-Nedd8, ATP
NAE (heterodimer of APPBP1 and UBA3), sequence (Q8TBC4 whole entry): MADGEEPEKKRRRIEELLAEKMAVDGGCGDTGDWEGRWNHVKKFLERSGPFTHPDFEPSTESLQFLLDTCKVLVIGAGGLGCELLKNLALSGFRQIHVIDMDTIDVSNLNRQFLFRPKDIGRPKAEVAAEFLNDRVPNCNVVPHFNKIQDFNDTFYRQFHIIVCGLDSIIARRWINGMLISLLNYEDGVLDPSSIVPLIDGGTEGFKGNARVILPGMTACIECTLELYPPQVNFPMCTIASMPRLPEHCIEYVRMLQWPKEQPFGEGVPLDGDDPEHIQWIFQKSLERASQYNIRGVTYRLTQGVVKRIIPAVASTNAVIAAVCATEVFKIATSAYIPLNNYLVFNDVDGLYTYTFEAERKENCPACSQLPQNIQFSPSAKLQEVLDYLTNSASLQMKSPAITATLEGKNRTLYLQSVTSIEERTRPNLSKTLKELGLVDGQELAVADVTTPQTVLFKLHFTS
NAE (heterodimer of APPBP1 and UBA3), sequence (Q13564 whole entry partner): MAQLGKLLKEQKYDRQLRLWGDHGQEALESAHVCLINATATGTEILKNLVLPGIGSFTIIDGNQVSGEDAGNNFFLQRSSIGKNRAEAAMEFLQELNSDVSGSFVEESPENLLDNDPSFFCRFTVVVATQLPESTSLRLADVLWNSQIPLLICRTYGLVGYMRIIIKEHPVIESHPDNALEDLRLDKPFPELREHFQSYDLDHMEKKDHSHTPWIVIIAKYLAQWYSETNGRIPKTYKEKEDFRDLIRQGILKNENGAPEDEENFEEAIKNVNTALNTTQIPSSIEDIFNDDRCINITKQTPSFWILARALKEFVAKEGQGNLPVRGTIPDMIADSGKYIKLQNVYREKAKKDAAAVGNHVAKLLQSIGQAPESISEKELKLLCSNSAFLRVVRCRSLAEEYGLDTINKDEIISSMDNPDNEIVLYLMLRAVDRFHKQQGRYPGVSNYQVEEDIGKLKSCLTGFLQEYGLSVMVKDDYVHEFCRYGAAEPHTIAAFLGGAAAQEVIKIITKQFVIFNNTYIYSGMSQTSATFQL

NS(=O)(=O)OC[C@@H]1C[C@@H](n2ccc3c(N[C@H]4CCc5ccccc54)ncnc32)C[C@@H]1O [Comparative Example, N-[(1S)-1-indanyl]-7-[(1R)-3α-hydroxy-4α-(sulfamoyloxymethyl)cyclopentyl]-7H-pyrrolo[2,3-d]pyrimidin-4-amine]
IC50 [1]: 0.089 µM | IC50 [2]: 0.56 µM | IC50 [3]: 1.4 µM | IC50 (carbonic anhydrase II; 4-nitrophenyl acetate esterase activity, absorbance at 405 nm): 0.012 µM | inhibitory activity against carbonic anhydrase II (carbonic anhydrase II; summary in words of Table 18): exhibited inhibitory activity against carbonic anhydrase II | RTV15 comparison with control [4]: significantly lower than that of the control | IC50 [5]: 0.11 µM | BWC15 (%) Mean ± SD ([6]; body weight change rate day 15, dose 120 mg/kg/day intravenous, administration day 1, 4, 8, 11): −14.3 ± 5.1% | IC50 [7]: 0.089 µM | BWC15 (%) Mean ± SD [8]: −8.4 ± 3.2% | RTV comparison with control on day 15 [9]: significantly lower than that of the control | BWC15 (%) Mean ± SD ([10]; CCRF-CEM xenograft in nude mice, 120 mg/kg/day i.v., administration days 1, 4, 8, 11, day 15): 6.1 ± 2.6% | IC50 [11]: 0.75 µM | IC50 [12]: 0.41 µM | IC50 [13]: 0.18 µM | IC50 [14]: 1.9 µM | IC50 [15]: 1.5 µM | RTV15 comparison with control [16]: significantly lower than that of the control | IC50 [17]: > 10 µM

Nc1ncnc2c1c(C#Cc1c(F)cccc1F)cn2[C@@H]1O[C@H](CNS(N)(=O)=O)[C@@H](O)[C@H]1O [Example 1, 4-Amino-5-[2-(2,6-difluorophenyl)ethynyl]-7-[(2R,3R,4S,5R)-3,4-dihydroxy-5-[(sulfamoylamino)methyl]tetrahydrofuran-2-yl]pyrrolo[2,3-d]pyrimidine]
RTV comparison with Comparative Example ([4]; Aspin-Welch's t-test): significantly lower than that of the Comparative Example | RTV15 comparison with control [4]: significantly lower than that of the control | change of the body weight compared with the control ([6]; HCT-116 nude mice, Test Example 5): within an acceptable degree

CN1CCOc2c1ccc(F)c2C#Cc1cn([C@@H]2O[C@H](CNS(N)(=O)=O)[C@@H](O)[C@H]2O)c2ncnc(N)c12 [Example 64, 8-[2-[4-Amino-7-[(2R,3R,4S,5R)-3,4-dihydroxy-5-[(sulfamoylamino)methyl]tetrahydrofuran-2-yl]pyrrolo[2,3-d]pyrimidin-5-yl]ethynyl]-7-fluoro-4-methyl-2,3-dihydro-1,4-benzoxazine]
RTV comparison with Comparative Example [9]: significantly lower than that of the Comparative Example | RTV comparison with control on day 15 [9]: significantly lower than that of the control

Nc1ncnc2c1c(C#Cc1c(F)cc(N3CC[C@H](F)C3)cc1F)cn2[C@@H]1C[C@H](CNS(N)(=O)=O)[C@@H](O)[C@H]1O [Example 116, 4-Amino-5-[2-[2,6-difluoro-4-[(3S)-3-fluoropyrrolidin-1-yl]phenyl]ethynyl]-7-[(1R,2S,3R,4R)-2,3-dihydroxy-4-[(sulfamoylamino)methyl]cyclopentyl]pyrrolo[2,3-d]pyrimidine]
IC50 [18]: 0.0051 µM

Nc1ncnc2c1c(C#Cc1c(F)cc(N3CC[C@@H](O)C3)cc1F)cn2[C@@H]1C[C@H](CNS(N)(=O)=O)[C@@H](O)[C@H]1O [Example 120, 4-Amino-5-[2-[2,6-difluoro-4-[(3R)-3-hydroxypyrrolidin-1-yl]phenyl]ethynyl]-7-[(1R,2S,3R,4R)-2,3-dihydroxy-4-[(sulfamoylamino)methyl]cyclopentyl]pyrrolo[2,3-d]pyrimidine]
RTV comparison with control on day 15 [9]: significantly lower than that of the control | change of the body weight compared with the control [10]: almost the same as that of the control

Nc1ncnc2c1c(C#Cc1c(F)cc(N3CC[C@H](O)C3)cc1F)cn2[C@@H]1C[C@H](CNS(N)(=O)=O)[C@@H](O)[C@H]1O [Example 121, 4-Amino-5-[2-[2,6-difluoro-4-[(3S)-3-hydroxypyrrolidin-1-yl]phenyl]ethynyl]-7-[(1R,2S,3R,4R)-2,3-dihydroxy-4-[(sulfamoylamino)methyl]cyclopentyl]pyrrolo[2,3-d]pyrimidine]
IC50 [18]: 0.0062 µM

CN1CCOc2c1ccc(F)c2C#Cc1cn([C@@H]2C[C@H](CNS(N)(=O)=O)[C@@H](O)[C@H]2O)c2ncnc(N)c12 [Example 122, 8-[2-[4-amino-7-[(1R,2S,3R,4R)-2,3-dihydroxy-4-[(sulfamoylamino)methyl]cyclopentyl]pyrrolo[2,3-d]pyrimidin-5-yl]ethynyl]-7-fluoro-4-methyl-2,3-dihydro-1,4-benzoxazine]
RTV comparison with Comparative Example [9]: significantly lower than that of the Comparative Example | RTV comparison with control on day 15 [9]: significantly lower than that of the control

Nc1ncnc2c1c(C#Cc1c(F)cccc1F)cn2[C@@H]1C=C(CNS(N)(=O)=O)[C@@H](O)[C@H]1O [Example 128, 4-Amino-5-[2-(2,6-difluorophenyl)ethynyl]-7-[(1R,4R,5S)-4,5-dihydroxy-3-[(sulfamoylamino)methyl]cyclopent-2-en-1-yl]pyrrolo[2,3-d]pyrimidine]
IC50 [18]: 0.0033 µM

Nc1ncnc2c1c(C#Cc1cccc3ccccc13)cn2[C@@H]1O[C@H](COS(N)(=O)=O)[C@@H](O)[C@H]1O [Example 133, [(2R,3S,4R,5R)-5-[4-Amino-5-[2-(1-naphthyl)ethynyl]pyrrolo[2,3-d]pyrimidin-7-yl]-3,4-dihydroxy-tetrahydrofuran-2-yl]methyl sulfamate]
RTV comparison with control on day 15 [9]: significantly lower than that of the control | change of the body weight compared with the control [10]: almost the same as that of the control

— patent US10174040B2, “Pyrrolopyrimidine compound or salt thereof and compositions containing the pyrrolopyrimidine compound or salt thereof” (TAIHO PHARMACEUTICAL CO., LTD., priority 2014, dated 2019)
